The source made the active and inactive calls. The rule behind the calls is not given here.
Assays:
Rattus norvegicus [1] = species: Rattus norvegicus; experiment: animal or person; details: Wistar, po, read-out: INH
Description: Antithyroid activity in L-T4-induced Wistar albino rat model of hyperthyroidism assessed as reduction in T3 level at 10 mg/kg, po qd post 12 days of L-T4 challenge measured after 15 days in presence of [125I]-T3 by RIA

Rattus norvegicus [2] = species: Rattus norvegicus; experiment: animal or person; details: Wistar, po, read-out: INH; remark: listed apart in the source
Description: Antithyroid activity in L-T4-induced Wistar albino rat model of hyperthyroidism assessed as reduction in T4 level at 10 mg/kg, po qd post 12 days of L-T4 challenge measured after 15 days in presence of [125I]-T4 by RIA

Rattus norvegicus [3] = species: Rattus norvegicus; experiment: animal or person; details: Wistar, po, read-out: INH; remark: listed apart in the source
Description: Antithyroid activity in L-T4-induced Wistar albino rat model of hyperthyroidism assessed as inhibition of hepatic 5'-monodeiodinase 1 activity by measuring reduction in T3 level using T4 as substrate at 10 mg/kg, po qd post 12 days of L-T4 challenge measured after 15 days in presence of [125I]-T3 by RIA

Rattus norvegicus [4] = experiment: (§1) Antithyroid activity in L-T4-induced Wistar albino rat model of hyperthyroidism assessed as inhibition of hepatic 5'-monodeiodinase 1 activity using T4 as substrate at 20 mg/kg, po qd post 12 days of L-T4 challenge measured after 15 days in presence of [125I]-T3 by RIA; format: functional, organism-based
Rattus norvegicus [5] = experiment: Antioxidant activity in L-T4-induced Wistar albino rat model of hyperthyroidism assessed as lipid peroxidation level by measuring MDA formation per mg protein at 10 mg/kg, po qd post 12 days of L-T4 challenge measured after 15 days by TBARS assay (reference value: 1.34 +/- 0.19 nM/hr); format: functional
Rattus norvegicus [6] = experiment: Antioxidant activity in L-T4-induced Wistar albino rat model of hyperthyroidism assessed as lipid peroxidation level by measuring MDA formation per mg protein at 20 mg/kg, po qd post 12 days of L-T4 challenge measured after 15 days by TBARS assay (reference value: 1.34 +/- 0.19 nM/hr); format: functional
Rattus norvegicus [7] = experiment: Antioxidant activity in L-T4-induced Wistar albino rat model of hyperthyroidism assessed as lipid peroxidation level by measuring MDA formation per mg protein at 30 mg/kg, po qd post 12 days of L-T4 challenge measured after 15 days by TBARS assay (reference value: 1.34 +/- 0.19 nM/hr); format: functional
Rattus norvegicus [8] = experiment: Antithyroid activity in L-T4-induced Wistar albino rat model of hyperthyroidism assessed as serum T3 level at 10 mg/kg, po qd post 12 days of L-T4 challenge measured after 15 days in presence of [125I]-T3 by RIA (reference value: 2.31 +/- 0.53 ng/ml); format: functional
Rattus norvegicus [9] = experiment: Antithyroid activity in L-T4-induced Wistar albino rat model of hyperthyroidism assessed as serum T3 level at 20 mg/kg, po qd post 12 days of L-T4 challenge measured after 15 days in presence of [125I]-T3 by RIA (reference value: 2.31 +/- 0.53 ng/ml); format: functional
Rattus norvegicus [10] = experiment: Antithyroid activity in L-T4-induced Wistar albino rat model of hyperthyroidism assessed as serum T4 level at 20 mg/kg, po qd post 12 days of L-T4 challenge measured after 15 days in presence of [125I]-T4 by RIA (reference value: 92.14 +/- 3.45 ng/ml); format: functional
Rattus norvegicus [11] = experiment: Antithyroid activity in L-T4-induced Wistar albino rat model of hyperthyroidism assessed as serum T3 level at 30 mg/kg, po qd post 12 days of L-T4 challenge measured after 15 days in presence of [125I]-T3 by RIA (reference value: 2.31 +/- 0.53 ng/ml); format: functional
Rattus norvegicus [12] = experiment: Antithyroid activity in L-T4-induced Wistar albino rat model of hyperthyroidism assessed as serum T4 level at 10 mg/kg, po qd post 12 days of L-T4 challenge measured after 15 days in presence of [125I]-T4 by RIA (reference value: 92.14 +/- 3.45 ng/ml); format: functional
Rattus norvegicus [13] = experiment: Antithyroid activity in L-T4-induced Wistar albino rat model of hyperthyroidism assessed as serum T4 level at 30 mg/kg, po qd post 12 days of L-T4 challenge measured after 15 days in presence of [125I]-T4 by RIA (reference value: 92.14 +/- 3.45 ng/ml); format: functional
Rattus norvegicus [14] = experiment: Antithyroid activity in L-T4-induced Wistar albino rat model of hyperthyroidism assessed as reduction in T3 level at 20 mg/kg, po qd post 12 days of L-T4 challenge measured after 15 days in presence of [125I]-T3 by RIA; format: functional
Rattus norvegicus [15] = experiment: Antithyroid activity in L-T4-induced Wistar albino rat model of hyperthyroidism assessed as decrease in body weight loss at 20 mg/kg, po qd post 12 days of L-T4 challenge measured after 15 days; format: functional, organism-based
Rattus norvegicus [16] = experiment: Antioxidant activity in L-T4-induced Wistar albino rat model of hyperthyroidism assessed as increase in superoxide dismutase activity by measuring pyrogallol oxidization per mg protein at 20 mg/kg, po qd administered post 12 days of L-T4 challenge measured on day 28; format: functional, organism-based
Rattus norvegicus [17] = experiment: Antioxidant activity in L-T4-induced Wistar albino rat model of hyperthyroidism assessed as increase in catalase activity by measuring H2O2 utilization per mg protein at 20 mg/kg, po qd administered post 12 days of L-T4 challenge measured every 5 secs for 30 secs on day 28 by spectrophotometric method; format: functional, organism-based
Rattus norvegicus [18] = experiment: Antioxidant activity in L-T4-induced Wistar albino rat model of hyperthyroidism assessed as reduction in total GSH content per mg of protein at 20 mg/kg, po qd administered post 12 days of L-T4 challenge measured after 15 days by Ellman's method; format: functional, organism-based
Rattus norvegicus [19] = experiment: Antithyroid activity in L-T4-induced Wistar albino rat model of hyperthyroidism assessed as reduction in glucose-6-phosphatase activity at 20 mg/kg, po qd post 12 days of L-T4 challenge measured after 15 days; format: functional, organism-based
Rattus norvegicus [20] = experiment: Antithyroid activity in L-T4-induced Wistar albino rat model of hyperthyroidism assessed as reduction in T4 level at 20 mg/kg, po qd post 12 days of L-T4 challenge measured after 15 days in presence of [125I]-T4 by RIA; format: functional
Rattus norvegicus [21] = experiment: as §1, with “1 activity by measuring reduction in T3 level using T4” for “1 activity using T4”; format: functional

SMILES: CCCc1cc(=O)[nH]c(=S)[nH]1 [PROPYLTHIOURACIL]
- inhibition in vivo at 10 mg/kg (Rattus norvegicus [1]): 56.5%
- inhibition in vivo at 10 mg/kg (Rattus norvegicus [2]): 81%
- inhibition in vivo at 10 mg/kg (Rattus norvegicus [3]): 59%

SMILES: C[C@@H]1CC[C@@]2(OC1)O[C@H]1C[C@H]3[C@@H]4CC[C@H]5C[C@@H](O[C@@H]6O[C@H](CO)[C@H](O)[C@H](O[C@@H]7O[C@H](CO)[C@@H](O)[C@H](O)[C@H]7O[C@@H]7O[C@H](CO)[C@@H](O)[C@H](O)[C@H]7O)[C@H]6O)[C@H](O)C[C@]5(C)[C@H]4CC[C@]3(C)[C@H]1[C@@H]2C
- inhibition (Rattus norvegicus [4]): Active
- Activity (Rattus norvegicus [5]): 0.871 nM/h
- Activity (Rattus norvegicus [6]): 0.312 nM/h
- Activity (Rattus norvegicus [7]): 0.976 nM/h
- Activity (Rattus norvegicus [8]): 1.91 ng/mL
- Activity (Rattus norvegicus [9]): 0.31 ng/mL
- Activity (Rattus norvegicus [10]): 38.7 ng/mL
- Activity (Rattus norvegicus [11]): 0.99 ng/mL
- Activity (Rattus norvegicus [12]): 79.81 ng/mL
- Activity (Rattus norvegicus [13]): 49.85 ng/mL
- inhibition in vivo at 20 mg/kg (Rattus norvegicus [14]): 56%
- Activity (Rattus norvegicus [15]): Active
- Activity (Rattus norvegicus [16]): Active
- Activity (Rattus norvegicus [17]): Active
- Activity (Rattus norvegicus [18]): Active
- Activity (Rattus norvegicus [19]): Active
- inhibition in vivo at 20 mg/kg (Rattus norvegicus [20]): 88.8%
- inhibition in vivo at 20 mg/kg (Rattus norvegicus [21]): 75.1%
